Data taken from the NIST ThermoML archive (doi:10.1016/j.jct.2017.09.012).
± gives the expanded uncertainty stated by the source.

Assay: osmotic coefficient (dimensionless); mn = molality of the nth substance listed, in mol/kg
Settings: 101 kPa, Liquid, isopiestic method

O=S(=O)([O-])[O-].[Zn+2] [zinc sulfate] + O
Settings	osmotic coefficient
288.15 K, m1 = 3.567	1.09 ± 0.03
288.15 K, m1 = 3.787	1.19 ± 0.033
288.15 K, m1 = 3.997	1.29 ± 0.03
298.15 K, m1 = 3.223	0.935 ± 0.009
298.15 K, m1 = 3.836	1.16 ± 0.013
308.15 K, m1 = 3.614	1.019 ± 0.005
308.15 K, m1 = 3.962	1.144 ± 0.009
308.15 K, m1 = 4.295	1.27 ± 0.015
313.15 K, m1 = 4.014	1.133 ± 0.007
313.15 K, m1 = 4.25	1.217 ± 0.009
313.15 K, m1 = 4.47	1.302 ± 0.013
